Consider 10 molecules from ChEMBL document CHEMBL1201862, “PubChem BioAssay data set” (2004).

Assay in all cases: NCI anticancer screen, dose series, 48 h
In test [1] the test system is 786-0.
Test [2] relates to DU-145.
Test [3] relates to SK-MEL-5.
Test [4] relates to SN12C.
In test [5] the test system is IGROV-1.
Test [6] concerns CCRF-CEM.
In test [7] the test system is HCT-15.
Test [8] relates to NCI/ADR-RES.
Test [9] deals with LOX IMVI.
Test [10] has as its system PC-3.
Test [11] has as its system MDA-MB-435.
Test [12] deals with SW-620.
The subject of test [13] is A498.
Test [14] deals with UACC-62.
Test [15] has as its system BT-549.
Test [16] has as its system SF-268.
Test [17] concerns NCI-H460.
Test [18] relates to A549.
In test [19] the test system is T47D.
For test [20], the system named is K562.

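These data come from cells grown in 96-well plates and exposed to compound for 48 hours at five concentrations. The concentration for 50% growth inhibition is given as GI50.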 The source made the active and inactive calls. Rule as the data show it: active = GI50 up to about 1.1 µM and inactive = higher.

`CC(=O)C(=[N+]=[N-])C(=O)OC(C)(C)C#N`: the GI50 in test [1], in test [2], in [3], in test [4], in test [5] and in test [6] was > 10 µM (inactive) each time. Also, the GI50 in test [7] is more than 10 µM; in test [8], > 10 µM (inactive); in [9], > 10 µM (inactive); in test [10] it was > 10 µM (inactive); in test [11], > 10 µM (inactive); in [12] it was > 10 µM (inactive). Moreover, the GI50 in test [13], in test [14], in test [15], in test [16], in test [17] and in test [18] was > 10 µM (inactive) throughout. In addition, the GI50 in test [19] and in test [20] was > 10 µM (inactive) each time.

`Cc1ncc(-c2nnnn2-c2ccccc2)c(C(=O)O)n1`: the GI50 in [1], in test [2], in test [3], in [4], in test [5] and in test [6] was > 100 µM (inactive) in each case. Further, the GI50 in test [7] was more than 100 µM; in test [8] it was > 100 µM (inactive); in [9], > 100 µM (inactive); in test [10] it was > 100 µM (inactive); in [11], > 100 µM (inactive); in test [12], > 100 µM (inactive). Also, the GI50 in [13], in test [14], in test [15], in test [16], in test [17] and in [18] was > 100 µM (inactive) each time. For the same molecule, the GI50 in test [19] and in test [20] was > 100 µM (inactive) each time.

`COC(=O)C#Cc1ccc([N+](=O)[O-])cc1`: the GI50 in [1] was 2.32 µM (inactive); in [2] it was 1.76 µM (inactive); in [3] it was 2.4 µM (inactive); in [4], 1.67 µM (inactive); in [5], 1.81 µM (inactive); in test [6] it was 0.532 µM (active). Further, the GI50 in test [7] is 0.502 µM; in test [8], 2.87 µM (inactive); in [9] it was 0.995 µM (active); in test [10], 3.73 µM (inactive); in test [11] it was 2.18 µM (inactive); in test [12] it was 1.19 µM (inactive). For the same molecule, the GI50 in test [13] is 9.91 µM (inactive); in test [14], 2.69 µM (inactive); in test [15], 1.49 µM (inactive); in [16], 4.16 µM (inactive); in test [17] it was 13.1 µM (inactive); in test [18], 2.74 µM (inactive). In addition, the GI50 is 1.45 µM (inactive) in [19] and 2.47 µM (inactive) in [20].

`Cc1nc2sc3ccccc3n2c(=O)c1/N=N/c1ccc(Br)cc1`: the GI50 was > 100 µM (inactive) in test [1]; > 100 µM (inactive) in [2]; > 100 µM (inactive) in [3]; > 100 µM (inactive) in test [4]; > 100 µM (inactive) in test [5]; 77.8 µM (inactive) in test [6]. Besides, the GI50 in test [7] was more than 100 µM; in test [8], > 100 µM (inactive); in test [9] it was 54.8 µM (inactive); in test [10] it was 51.5 µM (inactive); in test [11], > 100 µM (inactive); in test [12], > 100 µM (inactive). Besides, the GI50 in test [13] was 43.3 µM (inactive); in [14] it was > 100 µM (inactive); in test [15], > 100 µM (inactive); in [16], 70.5 µM (inactive); in test [17] it was > 100 µM (inactive); in test [18] it was > 100 µM (inactive). Also, the GI50 in [19] was 90.8 µM (inactive); in test [20], 81.1 µM (inactive).

`COc1ccc2c3c1OC1c4[nH]c5ccccc5c4CC4(O)C(C2)N(C)CCC314` (stereo not given): the GI50 in [1] was 18.7 µM (inactive); in test [2], 57.9 µM (inactive); in test [3], 15.2 µM (inactive); in [4], 56.6 µM (inactive); in test [5], 64.1 µM (inactive); in test [6] it was 24.2 µM (inactive). Moreover, the GI50 in test [7] is 46.6 µM; in test [8], 63.4 µM (inactive); in test [9], 20.1 µM (inactive); in test [10], 37.2 µM (inactive); in test [11] it was 18.1 µM (inactive); in [12] it was 39.1 µM (inactive). Besides, the GI50 in test [13] is 15.3 µM (inactive); in test [14], 20.9 µM (inactive); in [15], 30.8 µM (inactive); in test [16], 36.6 µM (inactive); in test [17], 22 µM (inactive); in test [18], 59.2 µM (inactive). For the same molecule, the GI50 in [19] was 20.8 µM (inactive); in [20], 15.3 µM (inactive).

In the case of `COc1nc(N)c(NC2OC(CO)C(O)C2O)c(=O)[nH]1` (stereo not given), the GI50 in test [1], in test [2], in [3], in test [4], in test [5] and in [6] was > 100 µM (inactive) in each case. Moreover, the GI50 in test [7] was more than 100 µM; in test [8], > 100 µM (inactive); in test [9], > 100 µM (inactive); in test [10] it was > 100 µM (inactive); in test [11], > 100 µM (inactive); in test [12] it was > 100 µM (inactive). Further, the GI50 in test [13], in test [14], in test [15], in test [16], in [17] and in [18] was > 100 µM (inactive) each time. Moreover, the GI50 in test [19] and in test [20] was > 100 µM (inactive) each time.

Turning to `O=C(O)C1OC(n2cc(F)c(=O)[nH]c2=O)CC1O` (stereo not given), the GI50 was 15.6 µM (inactive) in test [1]; 24.3 µM (inactive) in test [2]; 32.4 µM (inactive) in test [3]; 17.7 µM (inactive) in test [4]; > 100 µM (inactive) in [5]; 3.44 µM (inactive) in [6]. Further, the GI50 in test [7] is 77.4 µM; in test [8] it was 13.2 µM (inactive); in test [9], 8.87 µM (inactive); in [10], 51.8 µM (inactive); in [11], > 93.1 µM (inactive); in test [12] it was > 86.5 µM (inactive). Further, the GI50 in [13] was 10.1 µM (inactive); in test [14], 6.15 µM (inactive); in test [15], 99.1 µM (inactive); in test [16], 3.35 µM (inactive); in [17], 0.447 µM (active); in [18], 2.97 µM (inactive). For the same molecule, the GI50 in [19] is > 100 µM (inactive); in test [20] it was > 86.1 µM (inactive).

As to `O=S1(=O)c2cnccc2N=C(NCc2cccc3ccccc23)N1c1ccccc1`, the GI50 in [1] was 15 µM (inactive); in test [2], > 100 µM (inactive); in [3] it was > 95.9 µM (inactive); in [4] it was 27 µM (inactive); in test [5], > 61.5 µM (inactive); in test [6], 2.51 µM (inactive). The GI50 in test [7] was 50.1 µM; in test [8] it was 97.5 µM (inactive); in test [9], > 96.8 µM (inactive); in test [10] it was 30 µM (inactive); in [11], > 100 µM (inactive); in [12], > 100 µM (inactive). For the same molecule, the GI50 was > 100 µM (inactive) in test [13]; > 22.4 µM (inactive) in test [14]; > 100 µM (inactive) in [15]; > 100 µM (inactive) in [16]; 60.8 µM (inactive) in test [17]; > 57.7 µM (inactive) in [18]. Also, the figures for the GI50 in test [19] and in test [20] were 54.7 µM (inactive) and 29.4 µM (inactive), respectively.

Regarding `O=C1Oc2ccccc2C(=O)/C1=C/N1C(=O)N/C(=C\c2ccccc2O)C1=O`, the GI50 in test [1] is 68.7 µM (inactive); in test [2], 46.3 µM (inactive); in [3], 44.6 µM (inactive); in test [4], 53.6 µM (inactive); in [5], 48.8 µM (inactive); in [6], > 100 µM (inactive). Besides, the GI50 in test [7] is 39.8 µM; in test [8] it was 65.3 µM (inactive); in test [9], 34.1 µM (inactive); in test [10] it was 43.6 µM (inactive); in test [11] it was > 79.3 µM (inactive); in [12], > 90.8 µM (inactive). For the same molecule, the GI50 in test [13] is 42.6 µM (inactive); in test [14], 36.9 µM (inactive); in [15], 45.4 µM (inactive); in [16], > 81.1 µM (inactive); in test [17], 35.2 µM (inactive); in test [18], 58.9 µM (inactive). Besides, the GI50 in test [19] was 34.2 µM (inactive); in test [20], 54.7 µM (inactive).

Consider `COc1ccc(-c2oc3c(OC)c(OC)c(OC)c(OC)c3c(=O)c2OC)cc1OC` [3,5,6,7,8,3',4'-HEPTAMETHOXYFLAVONE], for which the GI50 in test [1] was 24.5 µM (inactive); in [2] it was 55.1 µM (inactive); in test [3], 19.3 µM (inactive); in test [4], 93.3 µM (inactive); in [5] it was 30.3 µM (inactive); in [6], 25.6 µM (inactive). The GI50 in [7] is 35.9 µM; in test [8], 20.3 µM (inactive); in [9], 27 µM (inactive); in [10], 26.6 µM (inactive); in test [11], 15.8 µM (inactive); in [12] it was 32.8 µM (inactive). Besides, the GI50 is 31 µM (inactive) in test [13]; 48.3 µM (inactive) in test [14]; 50.7 µM (inactive) in test [15]; 5.45 µM (inactive) in test [16]; 19.8 µM (inactive) in test [17]; 70.6 µM (inactive) in test [18]. In addition, the GI50 in [19] was 22.4 µM (inactive); in test [20], 31.5 µM (inactive).
